We go through 11 compounds from ChEMBL document CHEMBL1201862, “PubChem BioAssay data set” (2004).

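Tested at 5 concentrations; 48 h exposure; 96-well plates; endpoints linearly interpolated, else capped at highest concentration. GI50 marks 50% less growth.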 Activity calls are given as the source filed them. No stated cut-off is given here; in the data, active = GI50 up to about 1.1 µM and inactive = higher. Where only a bound is given, the exact number is not on record here.

Among the test systems are SK-MEL-2; UACC-62; SF-295; NCI/ADR-RES; NCI-H460; HCT-15; SF-539; SN12C; DU-145; HT-29; SNB-75; MDA-MB-435; NCI-H23; Hs-578T; RPMI-8226; HCT-116; HOP-92; UO-31; NCI-H522; SR.
Assay in all cases: inhibition of tumour cell growth, NCI panel, 48 h

Turning to `CCc1nc2ccc(C(F)(F)F)cc2[nH]c1=O`, the GI50 is > 100 µM (inactive) in the test on SK-MEL-2; > 100 µM (inactive) in the test on UACC-62; > 100 µM (inactive) with SF-295; > 100 µM (inactive) in the test with NCI/ADR-RES; > 100 µM (inactive) with NCI-H460; more than 100 µM in the test on HCT-15. In addition, the GI50 is > 100 µM (inactive) in the test with SF-539; > 100 µM (inactive) with SN12C; > 100 µM (inactive) in the test with DU-145; > 100 µM (inactive) with HT-29; 89.5 µM (inactive) in the test with SNB-75; > 100 µM (inactive) with MDA-MB-435. The GI50 with NCI-H23 is > 100 µM (inactive); in the test on Hs-578T, > 100 µM (inactive); with RPMI-8226, > 100 µM (inactive); in the test on HCT-116 it was > 100 µM (inactive); with HOP-92, > 100 µM (inactive); in the test with UO-31 it was 61.7 µM (inactive).

`COc1cc2c3c(n(C)c(=O)c2cc1OC)-c1cc2c(cc1/C3=C\CCCCl)OCO2`: the GI50 in the test with SK-MEL-2 was 25.5 µM (inactive); with SF-295, 19.9 µM (inactive); in the test with NCI/ADR-RES, 46.8 µM (inactive); with NCI-H460, 43.8 µM (inactive); with HCT-15 it was more than 100 µM; in the test on NCI-H522, 20.8 µM (inactive). Further, the GI50 was 39.7 µM (inactive) in the test with HT-29; 11.9 µM (inactive) in the test with SNB-75; 19.9 µM (inactive) with NCI-H23; 47.4 µM (inactive) with Hs-578T; 82.2 µM (inactive) in the test with HOP-92; 53.8 µM (inactive) with UO-31.

In the case of `COc1ccc(/C=C2\CCCCCC2=O)cc1`, the GI50 in the test on SK-MEL-2 was > 100 µM (inactive); in the test with UACC-62 it was > 100 µM (inactive); with SF-295, > 100 µM (inactive); in the test with NCI/ADR-RES it was > 100 µM (inactive); with NCI-H460, > 100 µM (inactive); in the test with HCT-15 it was more than 100 µM. The GI50 with SF-539, with SN12C, in the test on DU-145, with NCI-H522, with HT-29 and in the test with MDA-MB-435 was > 100 µM (inactive) each time. Further, the GI50 in the test on NCI-H23, in the test on RPMI-8226, in the test with HCT-116, in the test with SR, in the test with HOP-92 and in the test with UO-31 was > 100 µM (inactive) each time.

As to `O=C(c1ccccc1)N1C(=S)N(c2ccccn2)C(=N/c2ccccc2)/C1=N\c1ccccc1`, the GI50 was 13.6 µM (inactive) with SK-MEL-2; 11.2 µM (inactive) in the test on UACC-62; 25.5 µM (inactive) in the test with SF-295; 10.5 µM (inactive) in the test with NCI/ADR-RES; 29.5 µM (inactive) in the test with NCI-H460; 3.79 µM in the test with HCT-15. Moreover, the GI50 with SF-539 was 12.9 µM (inactive); in the test with SN12C it was 31.5 µM (inactive); in the test on DU-145, > 61.9 µM (inactive); in the test on NCI-H522, 2.16 µM (inactive); in the test with HT-29 it was 11.5 µM (inactive); with SNB-75 it was 20.5 µM (inactive). Besides, the GI50 with MDA-MB-435 was 19.6 µM (inactive); in the test on NCI-H23 it was 6.4 µM (inactive); in the test on RPMI-8226 it was 7.91 µM (inactive); in the test with HCT-116, 12.8 µM (inactive); in the test on SR, 3.86 µM (inactive); in the test on HOP-92, 6.67 µM (inactive). Besides, in the test with UO-31, the GI50 is 9.68 µM (inactive).

In the case of `Nc1ncnc2c1ncn2CC(OCP(=O)(O)O)Oc1ccccc1` (centres undefined), the GI50 is > 100 µM (inactive) in the test with SK-MEL-2; > 100 µM (inactive) in the test on UACC-62; > 100 µM (inactive) in the test on SF-295; > 100 µM (inactive) in the test on NCI/ADR-RES; more than 100 µM with HCT-15; > 100 µM (inactive) in the test on SF-539. Also, the GI50 in the test on SN12C, in the test on DU-145, in the test on SNB-75, with MDA-MB-435, in the test with Hs-578T and in the test with RPMI-8226 was > 100 µM (inactive) throughout. Also, the GI50 in the test with HCT-116, in the test with HOP-92 and with UO-31 was > 100 µM (inactive) in each case.

With `CC(=O)O[C@H]1[C@@H]2OC(=O)[C@@](O)(CC3CCCO3)[C@@H]2CC(=O)[C@](C)(O)CC/C=C(\C)CCC[C@@H]1C` (some centres undefined), the GI50 with SK-MEL-2 is 57.5 µM (inactive); in the test on UACC-62, 67.3 µM (inactive); with SF-295, 77.3 µM (inactive); in the test on NCI/ADR-RES it was 57.9 µM (inactive); with NCI-H460 it was > 100 µM (inactive); in the test with HCT-15 it was 34.3 µM. Also, the GI50 is 19.1 µM (inactive) with SF-539; 30.4 µM (inactive) in the test on SN12C; 37.8 µM (inactive) in the test on DU-145; 25.8 µM (inactive) in the test on NCI-H522; 97.5 µM (inactive) in the test on SNB-75; 31.7 µM (inactive) in the test on MDA-MB-435. The GI50 is 63.4 µM (inactive) in the test on Hs-578T, 26.2 µM (inactive) in the test with RPMI-8226, 28.2 µM (inactive) with HOP-92 and 61.8 µM (inactive) with UO-31.

For the compound `O=c1[nH]c(=O)n([C@H]2C[C@H](O)[C@@H](CO)O2)cc1Br` [BROXURIDINE], the GI50 in the test with SK-MEL-2 was > 100 µM (inactive); in the test on UACC-62 it was > 100 µM (inactive); with SF-295, > 100 µM (inactive); with NCI/ADR-RES it was > 100 µM (inactive); in the test with NCI-H460 it was > 100 µM (inactive); with HCT-15, more than 63.5 µM. Further, the GI50 in the test with SF-539 is > 100 µM (inactive); with SN12C, > 100 µM (inactive); in the test with DU-145, > 100 µM (inactive); in the test with NCI-H522 it was > 78.3 µM (inactive); with HT-29 it was > 100 µM (inactive); in the test on SNB-75 it was > 100 µM (inactive). For the same compound, the GI50 in the test with MDA-MB-435 was > 100 µM (inactive); in the test on NCI-H23, > 100 µM (inactive); with Hs-578T, > 100 µM (inactive); in the test on RPMI-8226, 49.9 µM (inactive); with HCT-116 it was > 94 µM (inactive); with HOP-92, > 100 µM (inactive). Also, the GI50 in the test on UO-31 was > 100 µM (inactive).

Take `C/C(=C/c1ccccc1)CN(C(=O)/C=C\Sc1ccccc1)C(C)(C)C`: the GI50 was > 75.9 µM (inactive) in the test on SK-MEL-2; > 100 µM (inactive) in the test on UACC-62; > 100 µM (inactive) with SF-295; > 34.6 µM (inactive) with NCI/ADR-RES; > 100 µM (inactive) in the test with NCI-H460; 37.2 µM in the test on HCT-15. Further, the GI50 is > 91.2 µM (inactive) in the test with SF-539; > 100 µM (inactive) with SN12C; > 100 µM (inactive) in the test on DU-145; 10.1 µM (inactive) with NCI-H522; 36.4 µM (inactive) in the test on HT-29; > 100 µM (inactive) with SNB-75. For the same compound, the GI50 with MDA-MB-435 is > 100 µM (inactive); in the test with NCI-H23, > 48 µM (inactive); in the test with RPMI-8226, 21.2 µM (inactive); with HCT-116, 24.8 µM (inactive); with SR, 19.6 µM (inactive); with HOP-92 it was 4.85 µM (inactive). The GI50 in the test with UO-31 was > 52 µM (inactive).

On to `COc1ccc(/C=C2\N=C3Sc4c([nH]cnc4=O)N3C2=O)cc1`, for which the GI50 in the test with SK-MEL-2 was > 100 µM (inactive); in the test on SF-295, > 100 µM (inactive); in the test on NCI/ADR-RES it was > 100 µM (inactive); in the test on HCT-15, more than 100 µM; in the test with SF-539, > 100 µM (inactive); with SN12C it was > 100 µM (inactive). In addition, the GI50 in the test with DU-145, in the test on NCI-H522, with HT-29, with SNB-75, in the test on MDA-MB-435 and in the test on NCI-H23 was > 100 µM (inactive) throughout. In addition, the GI50 with Hs-578T, in the test with RPMI-8226, in the test on HCT-116, in the test on HOP-92 and with UO-31 was > 100 µM (inactive) in each case.

In the case of `O=[N+]([O-])/C(C(Cl)=C(Cl)Cl)=C(\Nc1cccc2cccnc12)Sc1ccccc1`, the GI50 with SK-MEL-2 was 17.1 µM (inactive); in the test on UACC-62, 11.1 µM (inactive); in the test with SF-295 it was 19 µM (inactive); in the test on NCI/ADR-RES, 22.1 µM (inactive); in the test on NCI-H460, 34.4 µM (inactive); in the test on HCT-15, 17.5 µM. In addition, the GI50 in the test with SF-539 is 20.8 µM (inactive); with SN12C, 22.2 µM (inactive); with DU-145, 22.9 µM (inactive); in the test on HT-29, 23.4 µM (inactive); in the test with SNB-75, 23.7 µM (inactive); in the test with MDA-MB-435, 18.7 µM (inactive). In addition, the GI50 was 18.3 µM (inactive) with NCI-H23; 13.4 µM (inactive) in the test with Hs-578T; 31.5 µM (inactive) with RPMI-8226; 19.4 µM (inactive) in the test on HCT-116; 18.9 µM (inactive) in the test with UO-31.

For `Cc1cc(O)c(O)c(Oc2cc(C)cc(O)c2O)c1`, the GI50 in the test with SK-MEL-2 was 21.5 µM (inactive); in the test on UACC-62, 11.7 µM (inactive); in the test with SF-295, 14.8 µM (inactive); in the test with NCI-H460, 11.1 µM (inactive); in the test with HCT-15 it was 9.14 µM; in the test on SF-539 it was 23.3 µM (inactive). In addition, the GI50 with SN12C is 13.2 µM (inactive); with DU-145, 23.3 µM (inactive); in the test on NCI-H522 it was 15 µM (inactive); in the test with HT-29 it was 20.8 µM (inactive); in the test on SNB-75, 75.7 µM (inactive); in the test with MDA-MB-435, 12.7 µM (inactive). Further, the GI50 with NCI-H23 is 25.6 µM (inactive); with Hs-578T it was 48.4 µM (inactive); in the test with RPMI-8226 it was 31.1 µM (inactive); with HCT-116 it was 14.5 µM (inactive); in the test on SR, 6.7 µM (inactive); with HOP-92, 16.6 µM (inactive). Moreover, in the test on UO-31, the GI50 was 18.5 µM (inactive).
